Article PMC9555310, “Novel inhibitors and activity-based probes targeting serine proteases” (Frontiers in Chemistry, 2022)

How the values were obtained:
cathepsin B (CTSB) = target: T1, cathepsin B (CTSB) (Homo sapiens, UniProt P07858); experiment: Off-target study, residual activity after 2 min pre-incubation: cathepsin B; type: biochemical; settings: 25 and 50 μM, 0.1 M MES pH 6.1, 1 mM EDTA, 37°C
T1 construct: purchased R and D Systems
Method: FIGURE 5 Results of “off-target“ studies. NAP849 (A), NAP800 (B) and NAP830 (C) were tested against trypsin, chymotrypsin, and NE. Samples (approx. 0.01 μg) of each protease were incubated with the indicated concentrations of test compound for 2 min, in PBS, pH 7.4, at 37°C. (D) NAP858, NAP962 and NAP849 were tested against cathepsin B at the indicated concentrations in 0.1 M MES, pH 6.1, containing 1 mM EDTA, for 2 min, at 37°C. Aliquots (approx. 10 μL) of each incubation sample were then added to a fresh sample (990 μL) of PBS for the serine proteases and MES for cathepsin B, containing the appropriate substrate for each protease, to measure their residual activity. Controls incubations were performed in the absence of test compound, but in the presence of an appropriate volume of DMF vehicle used to prepare stock solutions of each inhibitor under study.
Two elements were investigated regarding possible “off-target” effects–determining the extent of cross-reactivity of each of the new putative ABPs between the various serine protease family members and assessing their collateral inhibitory action against another mechanistic class–the cysteine proteases, using cathepsin B (CTSB) as an exemplar.
For assays requiring a pre-incubation step enzyme and inhibitor in assay buffer were incubated together, at 37 °C, for 2 min, with gentle agitation. The reaction mixture was then aliquoted (50 μL) in duplicate on a black 96-well microtitre plate followed by addition of substrate to make a final concentration of 50 μM in a total volume of 100 μL. The fluorescence production was then measured as described for the previous procedure.
Assays with Cathepsin B required a pre-activation step of the protease prior to use in the fluorogenic enzyme assays. Cathepsin B was diluted to 10 μg/ml in activation buffer (0.1 M MES, pH 6.1, containing 1 mM EDTA and 2 mM DTT) and left to stand at room temperature for 15 minutes. Activated Cathepsin B was then diluted (1:50 to give 10 ng/50 μl) with assay buffer (activation buffer minus the DTT) prior to use as described previously.

plasmin = target: T2, plasmin (Homo sapiens, UniProt P00747); experiment: Irreversible inhibition kinetics of plasmin (fluorogenic substrate progress curves); type: biochemical; settings: PBS pH 7.4, 37°C, mean ± SD (n=2); for Ki: Boc-Val-Leu-Lys-NHMec 50 μM; for k 3: first-order rate constant; for k 3 / K i: second-order rate constant of inactivation
T2 construct: purchased Sigma-Aldrich (supplement); R&D Systems; host or cells: human plasma
T2 sequence (P00747 581-810 limits assumed): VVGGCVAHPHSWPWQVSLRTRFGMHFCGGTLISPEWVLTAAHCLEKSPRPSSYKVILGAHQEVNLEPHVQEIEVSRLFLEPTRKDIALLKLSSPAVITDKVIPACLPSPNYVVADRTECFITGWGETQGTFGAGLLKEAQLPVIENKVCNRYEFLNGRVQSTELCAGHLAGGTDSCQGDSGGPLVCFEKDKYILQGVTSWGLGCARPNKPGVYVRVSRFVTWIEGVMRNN
T2 sequence (P00747 97-580 partner limits assumed): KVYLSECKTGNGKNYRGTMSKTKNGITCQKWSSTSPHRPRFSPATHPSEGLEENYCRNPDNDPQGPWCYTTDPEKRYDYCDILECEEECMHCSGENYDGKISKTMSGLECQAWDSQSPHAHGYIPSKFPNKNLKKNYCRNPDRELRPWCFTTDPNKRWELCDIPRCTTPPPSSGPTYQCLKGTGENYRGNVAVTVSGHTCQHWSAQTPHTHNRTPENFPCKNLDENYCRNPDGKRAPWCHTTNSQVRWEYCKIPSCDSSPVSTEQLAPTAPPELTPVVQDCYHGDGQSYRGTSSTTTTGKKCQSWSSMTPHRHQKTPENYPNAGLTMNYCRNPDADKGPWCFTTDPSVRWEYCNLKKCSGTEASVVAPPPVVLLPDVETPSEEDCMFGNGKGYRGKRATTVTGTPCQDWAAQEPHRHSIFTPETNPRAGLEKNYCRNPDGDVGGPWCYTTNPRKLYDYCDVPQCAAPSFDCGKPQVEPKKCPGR
Method: A range of inhibitor concentrations were prepared from a 10 mM stock solution of the test compounds (NAP533, NAP559, NAP800, NAP830, NAP849, and NAP962) in N, N-dimethylformamide (DMF). Recombinant protease activities were assayed using the cognate fluorogenic substrates as follows: trypsin (Z-Gly-Gly-Arg-NHMec), thrombin (Boc-Val-Pro-Arg-NHMec), plasmin (Boc-Val-Leu-Lys-NHMec), human neutrophil elastase (MeO-Succinyl-Ala-Ala-Pro-Val-NHMec), and chymotrypsin (Succinyl-Ala-Ala-Pro-Phe-NHMec). Each substrate was used at a final concentration of 50 μM, in the appropriate buffer for each protease. All inhibition assays were performed in microtiter plates maintained at 37°C in a final volume of 100 μL. The reaction was initiated by the addition of each protease (approx. 0.01 μg/well) and the rate of substrate hydrolysis was recorded continuously at 37°C, over a 60 min period, by measuring the rate of increase in fluorescence (at λex 360 nm, λem 480 nm) using a FLUOstar Optima microplate reader (BMG Labtech).
The resultant inhibition progress curves obtained for each inhibitor were analyzed by the kinetic models developed by [Tian and Tsou (1982)] and [Walker and Elmore (1984)], for irreversible inhibitors, with curve fitting being achieved using GraFit (Erithacus Software), as described previously ([Ferguson et al., 2016]).
FIGURE 4 Progress curves for (A), chymotrypsin-catalysed hydrolysis of Succinyl-Ala-Ala-Pro-Phe-NHMec, in the presence of varying concentrations of NAP849. (B), NE-catalysed hydrolysis of MeO-succinyl-Ala-Ala-Pro-Val-NHMec, in the presence of varying concentrations of NAP800. (C) Trypsin-catalysed of Z-Gly-Gly-Arg-NHMec, in the presence of NAP830. (D) Plasmin-catalysed hydrolysis of Boc-Val-Leu-Lys-NHMec, in the presence of varying concentrations of NAP962. Assays were carried out in PBS, pH 7.4, at 37°C, in the presence of a range of inhibitor concentrations (0.25–50 μM) and a fixed concentration (50 μM) of the appropriate substrate for each protease.
The “product progress” curves for substrate hydrolysis in the presence of an inhibitor (Figure 4) are indicative of the action of irreversible inhibitors operating through the kinetic scheme illustrated in Figure 6. In this scheme, the formation of the reversible enzyme–inhibitor complex (EI) is zcharacterized by the inhibitor constant K i. This is converted into the covalent/irreversible complex (E-I) characterized by a first-order rate constant k 3. The overall second-order rate constant for the inactivation of E by I is given by the ratio k 3/K i ([Walker and Elmore, 1984]; [Tsou, 1988]).
Fluorogenic enzyme assays were carried out on a FLUOstar OPTIMA spectro-fluorimeter (BMG Labtech) with analysis performed on MARS Data Analysis Software (BMG Labtech). Black 96-well microtitre plates were supplied by Thermo Scientific. Trypsin from porcine pancreas, plasmin from human plasma and chymotrypsin from bovine pancreas were obtained from Sigma-Aldrich. Thrombin and Cathepsin B were supplied by R and D Systems. Human Neutrophil Elastase was supplied by Calbiochem. Fluorogenic substrates Z-Gly-Gly-Arg-NHMec, Succinyl-Ala-Ala-Pro-Phe-NHMec and MeO-Succinyl-Ala-Ala-Pro-Val-NHMec were supplied by Sigma-Aldrich. Boc-Val-Pro-Arg-NHMec was obtained from R and D Systems and Boc-Val-Leu-Lys-NHMec was supplied by PeptaNova. Phosphate Buffered Saline tablets were acquired from Sigma- Aldrich.
Protease inactivation by each of the compounds under study was evaluated using a fluorogenic enzyme assays. Protease-substrate combinations used as detailed in Section 2. Inhibitors were made up as 10 mM stock solutions in either DMF or DMSO, then diluted with PBS (pH 7.4) to give appropriate working concentrations. A final volume of 100 μL was used per well. Substrate (50 μM final concentration) was added to a black 96-well microtitre plate (Thermo Scientific), in duplicate, followed by addition of inhibitor, in such a manner to give the required final concentration. […]

trypsin = target: T3, trypsin (Sus scrofa, UniProt P00761); experiment: Off-target study, residual activity after 2 min pre-incubation: trypsin; type: biochemical, porcine; settings: 2 min incubation, PBS pH 7.4, 37°C, residual activity vs DMF control
T3 construct: purchased Sigma-Aldrich; host or cells: porcine pancreas
T3 sequence (P00761 9-231): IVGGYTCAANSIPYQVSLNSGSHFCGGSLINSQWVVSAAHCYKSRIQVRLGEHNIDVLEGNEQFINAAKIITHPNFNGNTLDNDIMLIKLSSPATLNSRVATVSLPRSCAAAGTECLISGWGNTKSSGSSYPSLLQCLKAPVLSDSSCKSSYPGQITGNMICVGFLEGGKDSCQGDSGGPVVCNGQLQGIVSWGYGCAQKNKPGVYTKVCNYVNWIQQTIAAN
Method: FIGURE 5 Results of “off-target“ studies. NAP849 (A), NAP800 (B) and NAP830 (C) were tested against trypsin, chymotrypsin, and NE. Samples (approx. 0.01 μg) of each protease were incubated with the indicated concentrations of test compound for 2 min, in PBS, pH 7.4, at 37°C. (D) NAP858, NAP962 and NAP849 were tested against cathepsin B at the indicated concentrations in 0.1 M MES, pH 6.1, containing 1 mM EDTA, for 2 min, at 37°C. Aliquots (approx. 10 μL) of each incubation sample were then added to a fresh sample (990 μL) of PBS for the serine proteases and MES for cathepsin B, containing the appropriate substrate for each protease, to measure their residual activity. Controls incubations were performed in the absence of test compound, but in the presence of an appropriate volume of DMF vehicle used to prepare stock solutions of each inhibitor under study. […]
For assays requiring a pre-incubation step enzyme and inhibitor in assay buffer were incubated together, at 37 °C, for 2 min, with gentle agitation. […] The fluorescence production was then measured as described for the previous procedure.

Ki (plasmin)	k 3 (plasmin)	k 3 / K i (plasmin)	off-target inhibition of trypsin (trypsin)	Compound	inhibitory activity against CTSB (cathepsin B (CTSB))
7.2 µM	0.4 (± 0.05) min^−1	6.2 (± 0.9) × 10^4 M^−1 min^−1		NCCCCN(CC(=O)NCC(=O)NCC(=O)NCCCOCCOCCOCCCNC(=O)CCCCC1SCC2NC(=O)NC21)C(=O)ON1C(=O)CCC1=O (stereo not drawn) [NAP830, Succinimidoyl-CO-NLys-Gly-Gly-PEG-Biotin]	none of the three carbamates tested exhibited any inhibitory activity against CTSB
			no “off-target” or collateral inhibition	CC(C)N(CC(=O)NCC(=O)NCC(=O)NCCCOCCOCCOCCCNC(=O)CCCCC1SCC2NC(=O)NC21)C(=O)ON1C(=O)CCC1=O (stereo not drawn) [NAP800, Succinimidoyl-CO-NVal-Gly-Gly-PEG-Biotin]	
4.2 µM	0.6 (± 0.1) min^−1	1.4 (± 0.3) × 10^5 M^−1 min^−1		CC(C)N(CC(=O)NCCCOCCOCCOCCCNC(=O)CCCCC1SCC2NC(=O)NC21)C(=O)CN(Cc1ccccc1)C(=O)CN(CCCCN)C(=O)ON1C(=O)CCC1=O (stereo not shown) [NAP962, Succinimidoyl-CO-NLys-NPhe-NVal-PEG-Biotin]	none of the three carbamates tested exhibited any inhibitory activity against CTSB
			complete absence of inhibition	O=C(CCCCC1SCC2NC(=O)NC21)NCCCOCCOCCOCCCNC(=O)CNC(=O)CNC(=O)CN(Cc1ccccc1)C(=O)ON1C(=O)CCC1=O (stereo not drawn) [NAP849, Succinimidoyl-CO-NPhe-Gly-Gly-PEG-Biotin]	
